Counter-ions that a name gives are not always drawn.

Experiment [1] deals with IL-4 stimulated CD23 upregulation in human Ramos B cells (JAK-1/JAK-3, Stat-6). Briefly: Assay for Ramos B-Cell Line Stimulated with IL-4 (CD23 upregulation, FACS). The format is cell-based. Particulars: Table III Example 3. An excerpt:
One means of assaying for such inhibition is detection of the effect of the 2,4-pyrimidinediamine compounds on the upregulation of downstream gene products. In the Ramos/IL4 assay, B-cells are stimulated with the cytokine Interleukin-4 (IL-4) leading to the activation of the JAK/Stat pathway through phosphorylation of the JAK family kinases, JAK1 and JAK3, which in turn phosphorylate and activate the transcription factor Stat-6. […] To study the effect of inhibitors (e.g., the 2,4-substituted pyrimindinediamine compounds described herein) on the JAK1 and JAK3 kinases, human Ramos B cells are stimulated with human IL-4. 20 to 24 hours post stimulation, cells are stained for upregulation of CD23 and analyzed using flow cytometry (FACS).
B-cells stimulated with cytokine Interleukin-4 (IL-4) activate the JAK/Stat pathway through phosphorylation of the JAK family kinases, JAK-1 and JAK-3, which in turn phosphorylate and activate the transcription factor Stat-6. […] To study the effect of inhibitors on the JAK family kinases, human Ramos B cells are stimulated with human IL-4.
Cells were maintained at a density of 3.5×10^5. The day before the experiment, Ramos B-cells were diluted to 3.5×10^5 cells/mL to ensure that they were in a logarithmic growth phase.
Cells were spun down and suspended in RPMI with 5% serum. 5×10^4 cells were used per point in a 96-well tissue culture plate. Cells were pre-incubated with compound or DMSO (Sigma-Aldrich, St. Louis, Mo., Cat No. D2650) vehicle control for 1 hour in a 37° C. incubator. Cells were then stimulated with IL-4 (Peprotech Inc., Rocky Hill, N.J., Cat No. 200-04) for a final concentration of 50 units/mL for 20-24 hours. […] Detection was performed using a BD LSR I System Flow Cytometer, purchased from Becton Dickinson Biosciences of San Jose, Calif.

Experiment [2] relates to primary human T-cells (IL-2 induced proliferation, JAK-1/JAK-3, Stat-5). Briefly: Primary Human T-Cell Proliferation Assay Stimulated with IL-2 (CellTiter-Glo). Particulars: Table III Example 4. The format is cell-based. The method, then: In this assay, primary human T-cells derived from peripheral blood and pre-activated through stimulation of the T-cell receptor and CD28, proliferate in culture in response to the cytokine Interleukin-2 (IL-2). This proliferative response is dependent on the activation of JAK1 and JAK3 tyrosine kinases, which phosphorylate and activate the transcription factor Stat-5. The primary human T-cells are incubated with the 2,4-pyrimidinediamine compounds in the presence of IL-2 for 72 hours, and at the assay endpoint intracellular ATP concentrations are measured to assess cell viability. A reduction in cell proliferation compared to control conditions is indicative of inhibition of the JAK kinase pathway.
Primary human T-cells derived from peripheral blood and pre-activated through stimulation of the T-cell receptor and CD28 proliferate in vitro in response to the cytokine Interleukin-2 (IL-2). This proliferative response is dependent on the activation of JAK-1 and JAK-3 tyrosine kinases, which phosphorylate and activate the transcription factor Stat-5.
Human primary T cells were prepared as follows. […] The lymphocytes at the serum: ficoll interface were recovered and washed twice with 5 volumes of PBS. […] The primary T-cells were stimulated for 3 to 4 days, then transferred to a fresh flask and maintained in RPMI with 10% FBS and 40 U/mL IL-2.
Primary T-cells were washed twice with PBS to remove the IL-2 and resuspended in Yssel's medium at 2×10^6 cells/mL. 50 μL of cell suspension containing 80 U/mL IL-2 was added to each well of a flat bottom 96 well black plate. For the unstimulated control, IL-2 was omitted from the last column on the plate. […] 50 μL of 2× compound was added per well in duplicate and the cells were allowed to proliferate for 72 hours at 37° C.
Proliferation was measured using CellTiter-Glo® Luminescent Cell Viability Assay (Promega), which determines the number of viable cells in culture based on quantitation of the ATP present, as an indicator of metabolically active cells. The substrate was thawed and allowed to come to room temperature. After mixing the Cell Titer-Glo reagent and diluent together, 100 μL was added to each well. The plates were mixed on an orbital shaker for two minutes to induce lysis and incubated at room temperature for an additional ten minutes to allow the signal to equilibrate.
A general note: ATP-based viability assays read luminescence as a measure of living cells.

As usually defined, the IC50 is the point on the concentration scale where inhibition reaches its midpoint. Read a high IC50 as a need for much substance. Regarding `C#CCNS(=O)(=O)Cc1cccc(Nc2nc(Nc3ccc(S(N)(=O)=O)cc3)ncc2F)c1` [Compound I-2, N2-(4-Aminosulfonylphenyl)-5-fluoro-N4-[3-(prop-2-ynylaminosulfonylmethyl)phenyl]-2,4-pyrimidinediamine], the IC50 is 647 nM in experiment [1] (Homo sapiens, Ramos) and 3730 nM in experiment [2] (Homo sapiens, T-cell). The corresponding values for `C#CCNS(=O)(=O)Cc1ccc(Nc2nc(Nc3ccc(S(N)(=O)=O)cc3)ncc2F)cc1` [Compound I-6, N2-(4-Aminosulfonylphenyl)-5-fluoro-N4-[4-(prop-2-ynylaminosulfonylmethyl)phenyl]-2,4-pyrimidinediamine] are 559 nM and 536 nM.

Turning to `C#CCNS(=O)(=O)c1cccc(Nc2ncc(F)c(Nc3ccc(CNS(=O)(=O)C4CC4)cc3)n2)c1` [Compound I-7, 5-Fluoro-N4-[4-(cyclopropylsulfonylaminomethyl)phenyl]-N2-[3-(prop-2-ynylaminosulfonyl)phenyl]-2,4-pyrimidinediamine], the IC50 in experiment [1] (Homo sapiens, Ramos) was 73.5 nM; in experiment [2] (Homo sapiens, T-cell), 113 nM. On to `CCS(=O)(=O)N[C@@H](C)c1ccc(Nc2nc(Nc3ccc(S(N)(=O)=O)cc3)ncc2F)cc1` [Compound I-26, N2-(4-aminosulfonyl)phenyl-N4-[4-(1S-ethylsulfonylamino)ethyl]phenyl-5-fluoro-2,4-pyrimidinediamine], for which the IC50 in experiment [1] came out at 252 nM; in experiment [2] it was 1160 nM. For `CCS(=O)(=O)N[C@H](C)c1ccc(Nc2nc(Nc3ccc(S(N)(=O)=O)cc3)ncc2F)cc1` [Compound I-29, N2-(4-aminosulfonyl)phenyl-N4-[4-(1R-ethylsulfonylamino)ethyl]phenyl-5-fluoro-2,4-pyrimidinediamine], the IC50 was determined as 203 nM in experiment [1] and 882 nM in experiment [2].

As for `NS(=O)(=O)c1ccc(Nc2ncc(F)c(Nc3cccc(CNS(=O)(=O)C4CC4)c3)n2)cc1` [Compound I-32, N2-(4-aminosulfonyl)phenyl-N4-(3-cyclopropylsulfonylaminomethyl)phenyl-5-fluoro-2,4-pyrimidinediamine], the figures for the IC50 in experiment [1] and in experiment [2] were 364 nM and 1560 nM, respectively. For `NS(=O)(=O)c1ccc(Nc2ncc(F)c(Nc3ccc(CNS(=O)(=O)c4cccs4)cc3)n2)cc1` [Compound I-35, N2-(4-aminosulfonyl)phenyl-5-fluoro-N4-[4-(thiophen-2-yl)sulfonylaminomethyl]phenyl-2,4-pyrimidinediamine], the concentration for half-maximal inhibition (IC50) in experiment [1] was 133 nM; in experiment [2], 436 nM. As for `Cc1nc(N)sc1S(=O)(=O)NCc1ccc(Nc2nc(Nc3cccc(S(N)(=O)=O)c3)ncc2F)cc1` [Compound I-41, N4-[4-(2-amino-4-methylthiazol-5-yl)sulfonylaminomethyl]phenyl-N2-(3-aminosulfonyl)phenyl-5-fluoro-2,4-pyrimidinediamine], the results for the IC50 in experiment [1] and in experiment [2] were 1020 nM and 2120 nM, respectively. For `CC(=O)Nc1nc(C)c(S(=O)(=O)NCc2ccc(Nc3nc(Nc4cccc(S(N)(=O)=O)c4)ncc3F)cc2)s1` [Compound I-42, N4-[4-(2-acetylamino-4-methylthiazol-5-yl)sulfonylaminomethyl]phenyl-N2-(3-aminosulfonyl)phenyl-5-fluoro-2,4-pyrimidinediamine], the IC50 in experiment [1] came out at 1150 nM; in experiment [2], 3220 nM. Regarding `CC(=O)Nc1nc(C)c(S(=O)(=O)NCc2ccc(Nc3nc(Nc4ccc(C)c(S(N)(=O)=O)c4)ncc3F)cc2)s1` [Compound I-44, N4-[4-(2-acetylamino-4-methylthiazol-5-yl)sulfonylaminomethyl]phenyl-N2-(3-aminosulfonyl-4-methyl)phenyl-5-fluoro-2,4-pyrimidinediamine], the results for the IC50 in experiment [1] and in experiment [2] were 1220 nM and 4160 nM, respectively. The like results for `CCS(=O)(=O)NCc1ccc(Nc2nc(Nc3ccc(S(N)(=O)=O)cc3)ncc2F)cc1Cl` [Compound I-74, N2-(4-aminosulfonyl)phenyl-N4-(3-chloro-4-ethylsulfonylaminomethyl)phenyl-5-fluoro-2,4-pyrimidinediamine] were, in that order, 362 nM and 2250 nM. `CCCC(=O)NS(=O)(=O)c1cccc(Nc2ncc(C)c(Nc3cccc(CN(C(=O)CCC)S(=O)(=O)C4CC4)c3)n2)c1` [Compound I-222, N2-(3-butyrylaminosulfonyl)phenyl-N4-[3-(N-butyryl-N-cyclopropylsulfonyl)aminomethyl]phenyl-5-methyl-2,4-pyrimidinediamine Choline salt] showed an IC50 in experiment [1] of 3030 nM. Same read-out and setting: next, `CCCC(=O)NS(=O)(=O)c1cccc(Nc2ncc(C)c(Nc3cccc(CNS(=O)(=O)C4CC4)c3)n2)c1` [Compound I-223, N2-(3-butyrylaminosulfonyl)phenyl-N4-(3-cyclopropylsulfonylaminomethyl)phenyl-5-methyl-2,4-pyrimidinediamine]: 3690 nM.

`CCCC(=O)N(Cc1cccc(Nc2nc(Nc3cccc(S(N)(=O)=O)c3)ncc2C)c1)S(=O)(=O)C1CC1` [Compound I-224, N2-(3-aminosulfonyl)phenyl-N4-[3-(N-butyryl-N-cyclopropylsulfonyl)aminomethyl]phenyl-5-methyl-2,4-pyrimidinediamine] yielded a half-maximal inhibitory concentration (IC50) in experiment [1] of 21.8 nM.

Turning to `CCCC(=O)N(COC(C)=O)S(=O)(=O)c1cccc(Nc2ncc(C)c(Nc3cccc(CNS(=O)(=O)C4CC4)c3)n2)c1` [Compound I-225, N2-[3-(N-acetoxymethyl-N-butyryl)aminosulfonyl]phenyl-N4-(3-cyclopropylsulfonylaminomethyl)phenyl-5-methyl-2,4-pyrimidinediamine], the IC50 in experiment [1] stood at 115 nM. On the same count and under the same terms, in the case of `CCC(=O)NS(=O)(=O)c1cccc(Nc2ncc(C)c(Nc3cccc(CN(C(=O)CC)S(=O)(=O)C4CC4)c3)n2)c1` [Compound I-226, N4-[3-(N-cyclopropylsulfonyl-N-propionyl)aminomethyl]phenyl-5-methyl-N2-(3-propionylaminosulfonyl)phenyl-2,4-pyrimidinediamine Choline salt] it was 5490 nM. Same read-out and setting: in the case of `Cc1ccc(Nc2ncc(F)c(Nc3ccc4c(c3)CN(S(=O)(=O)C3CC3)C4)n2)cc1S(N)(=O)=O` [II-4, N2-(3-Aminosulfonyl-4-methylphenyl)-N4-[(2-cyclopropylsulfonyl)-isoindolin-5-yl]-5-fluoro-2,4-pyrimidinediamine] it was 720 nM; in that of `NS(=O)(=O)c1cccc(Nc2ncc(F)c(Nc3ccc4c(c3)CN(S(=O)(=O)C3CC3)C4)n2)c1` [II-5, N2-(3-Aminosulfonyl-phenyl)-N4-[(2-cyclopropylsulfonyl)-isoindolin-5-yl]-5-fluoro-2,4-pyrimidinediamine], 698 nM; in that of `NS(=O)(=O)c1ccc(Nc2ncc(F)c(Nc3ccc4c(c3)CN(S(=O)(=O)C3CC3)C4)n2)cc1` [II-6, N2-(4-Aminosulfonyl-phenyl)-N4-[(2-cyclopropylsulfonyl)-isoindolin-5-yl]-5-fluoro-2,4-pyrimidinediamine], 640 nM. For “N4-[3-(N-cyclopropylsulfonyl-N-valeryl)aminomethyl]phenyl-5-methyl-N2-(3-valerylaminosulfonyl)phenyl-2,4-pyrimidinediamine sodium salt [Compound I-221]”, half-maximal inhibition in experiment [1] (IC50) was put at 1880 nM. The same measure, in the same setting: in the case of “N4-[4-(N-cyclopropylsulfonyl-N-propionyl)aminomethyl]phenyl-5-methyl-N2-(4-propionylaminosulfonyl)phenyl-2,4-pyrimidinediamine sodium salt [Compound I-78]” it was 1080 nM.

The record behind these values is patent publication US9481654B2, “Compositions and methods for inhibition of the JAK pathway” (Rigel Pharmaceuticals, Inc., priority 2006, dated 2016).
